Article PMC6663879, “Biochemical and structural investigations clarify the substrate selectivity of the 2-oxoglutarate oxygenase JMJD6” (The Journal of Biological Chemistry, 2019)
Read-outs that look alike come from different tables or passages of the source.

Assays:
JMJD6^Δ363–403 [1] = molecular target: T1, JMJD6^Δ363–403 (Homo sapiens, UniProt Q6NYC1); details: read-out: 2OG Km^app; standard hydroxylation assay conditions, 2OG varied 0–150 μM, 37 °C, HEPES-KOH pH 8.0; mean ± S.D. (n = 3)
Procedure: (§1) JMJD6 activity was assayed using a reaction mixture of 10 μM purified JMJD6 and 100 μM substrate peptide, at 37 °C in 50 mM HEPES-KOH, pH 8.0, buffer supplemented with 100 μM (NH4)2Fe(SO4)2·6H2O (Sigma), 400 μM L-sodium ascorbate (Sigma), and 500 μM disodium 2OG (Fluka). After 30 min, the reaction was quenched by an equal volume of 1% (v/v) aqueous formic acid (Sigma). In a 96-well MALDI plate (Waters), 0.8 μl of CHCA (α-cyano-4-hydroxycinnamic acid, Aldrich) ([…] in 0.1 ml of CHCA solvent) and 0.6 μl of the quenched mixture were placed in a well. After drying, the samples were analyzed by MALDI-TOF MS using a reported procedure ([59], [60]). The kinetic data obtained thereafter were fitted using GraphPad Prism (GraphPad Software) ([59], [60]).

JMJD6^Δ344–403 [2] = details: read-out: 2OG Km^app; standard hydroxylation assay conditions, 2OG varied 0–150 μM, 37 °C, HEPES-KOH pH 8.0; mean ± S.D. (n = 3)
Procedure: as §1

JMJD6^FL [3] = details: read-out: 2OG Km^app; standard hydroxylation assay conditions, 2OG varied 0–150 μM, 37 °C, HEPES-KOH pH 8.0; mean ± S.D. (n = 3)
Procedure: as §1

JMJD6^FL [4] = details: read-out: 2OG Km^app; reported for JMJD6^FL; ref Mantri et al. ([23]); cited from earlier work
JMJD6^Δ363–403 [5] = molecular target: T1, JMJD6^Δ363–403; test: CPMG-edited NMR titration, apparent binding constant of 2OG; design: two more variants (aa 1–362, JMJD6^Δ363–403, and aa 1–343, JMJD6^Δ344–403); His6 (N); made in house; host or cells: Escherichia coli Rosetta2(DE3); details: CPMG-edited 1H NMR (700 MHz), 20 μM 2OG, 200 μM Zn(II), Tris-d11 pH 7.5, titrated with EDTA-treated JMJD6; mean ± S.D. (n = 3); read-out: 2OG KD^app
Procedure: (§2) 20 μM 2OG and 200 μM Zn(II) were mixed in deuterated Tris-d11, pH 7.5, and the ^1H NMR signals for 2OG were recorded at 700 MHz ([39]). […] Typically, a 5–10% error was allowed in the curve-fitting process.
(§3) CPMG displacement experiments used a Bruker AV700 NMR machine, as reported previously ([39]). The PROJECT (Periodic Refocusing of J Evolution by Coherence Transfer)-CPMG sequence (90°x − (τ − 180°y − τ − 90°y − τ − 180°y − τ)n − acquisition) was applied ([56]). […] Water suppression was achieved by presaturation ([57], [58]).

JMJD6^Δ344–403 [6] = test: as above; design: species or system human; details: CPMG-edited 1H NMR (700 MHz), 20 μM 2OG, 200 μM Zn(II), Tris-d11 pH 7.5, titrated with EDTA-treated JMJD6; mean ± S.D. (n = 3); read-out: 2OG KD^app
Procedure: as §2, §3

JMJD6^FL [7] = test: as above; design: species or system human; details: CPMG-edited 1H NMR (700 MHz), 20 μM 2OG, 200 μM Zn(II), Tris-d11 pH 7.5, titrated with EDTA-treated JMJD6; mean ± S.D. (n = 3); read-out: 2OG KD^app
Procedure: as §2, §3

O=C(O)CCC(=O)C(=O)O [Peptide 2OG, 2-oxoglutarate]
Km (JMJD6^Δ363–403 [1]): 24 ± 5.4 µM
Km (JMJD6^Δ344–403 [2]): 45 ± 10 µM
Km (JMJD6^FL [3]): 31 ± 5.3 µM
Km (JMJD6^FL [4]): 39 µM
Kd (JMJD6^Δ363–403 [5]): 3 ± 4.8 µM
Kd (JMJD6^Δ344–403 [6]): 3.5 ± 2.1 µM
Kd (JMJD6^FL [7]): 2.3 ± 1.6 µM
